Read-outs that look alike come from different tables or passages of the source.
How the values were obtained:
[1] = molecular target: human growth hormone secretagogue receptor (hGHS-R1a) (Homo sapiens, UniProt Q92847); test: Competitive radioligand binding assay (ghrelin receptor), standard method A; details: binding activity at the human ghrelin receptor, standard method A
[2] = molecular target: T1, CYP1A2 (Homo sapiens, UniProt P05177); test: Cytochrome P450 inhibition, CYP1A2; assay type: in vitro ADME; details: read-out: IC50 1A2
T1 construct: purchased BD Gentest, Becton-Dickinson (Supersomes); host or cells: insect cells
T1 sequence (P05177 1-516): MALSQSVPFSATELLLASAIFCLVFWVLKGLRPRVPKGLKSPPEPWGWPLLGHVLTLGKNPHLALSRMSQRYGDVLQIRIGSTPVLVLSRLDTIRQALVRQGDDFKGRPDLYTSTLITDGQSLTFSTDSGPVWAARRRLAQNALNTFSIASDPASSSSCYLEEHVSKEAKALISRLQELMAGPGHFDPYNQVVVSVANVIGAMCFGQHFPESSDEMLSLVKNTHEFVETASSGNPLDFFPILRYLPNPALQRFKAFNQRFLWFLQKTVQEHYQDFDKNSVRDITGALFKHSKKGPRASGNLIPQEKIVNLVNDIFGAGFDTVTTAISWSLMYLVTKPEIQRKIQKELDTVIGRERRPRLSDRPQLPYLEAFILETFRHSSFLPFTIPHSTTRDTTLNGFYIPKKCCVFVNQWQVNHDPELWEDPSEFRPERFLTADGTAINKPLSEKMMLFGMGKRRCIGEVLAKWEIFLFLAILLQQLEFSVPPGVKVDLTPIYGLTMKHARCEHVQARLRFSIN
Excerpt: (§1) K. Assay for Cytochrome P450 Inhibition
(§2) Cytochrome P450 enzymes are implicated in the phase I metabolism of drugs. The majority of drug-drug interactions are metabolism-based and, moreover, these interactions typically involve inhibition of cytochrome P450s. Six CYP450 enzymes (CYP1A2, CYP2C8, CYP2C9, CYP2C19, CYP2D6 and CYP3A4) appear to be commonly responsible for the metabolism of most drugs and the associated drug-drug interactions. Assays to determine the binding of compounds of the invention to the various metabolically important isoforms of cytochrome P450 metabolizing enzymes are commercially available, for example NoAb BioDiscoveries (Mississaugua, ON, Canada) and Absorption Systems (Exton, Pa., USA). As well, a number of appropriate methods have been described or reviewed in the literature. (White, R. E. Ann. Rev. Pharmacol. Toxicol. 2000, 40, 133-157; Li, A. P. Drug. Disc. Today 2001, 6, 357-366; Turpeinen, M.; Korhonen, L. E. Tolonen, A.; et al. Eur. J. Pharm. Sci, 2006, 29, 130-138.)
(§3) The key aspects of the experimental method were as follows: • 1. […] Assays monitored, via fluorescence detection, the formation of a fluorescent metabolite following incubation of the microsomes with a specific CYP substrate. • 3. Compounds of the present invention were tested in duplicate samples at eight test concentrations using 3-fold serial dilutions (concentration range of 0.0457 to 100 μM). • 4. For each CYP-450 enzyme, a specific inhibitor was tested in duplicate at eight concentrations as a positive control. • 5. The concentration of the inhibitor or test compound that inhibited metabolite formation by 50% (IC50) was calculated by non-linear regression analysis of the % inhibition vs. log concentration (M) curve.

[3] = molecular target: T2, CYP2A6 (Homo sapiens, UniProt P11509); test: Cytochrome P450 inhibition, CYP2A6; assay type: in vitro ADME; details: read-out: IC50 2A6
T2 construct: purchased BD Gentest, Becton-Dickinson (Supersomes); host or cells: insect cells
T2 sequence (P11509 1-494): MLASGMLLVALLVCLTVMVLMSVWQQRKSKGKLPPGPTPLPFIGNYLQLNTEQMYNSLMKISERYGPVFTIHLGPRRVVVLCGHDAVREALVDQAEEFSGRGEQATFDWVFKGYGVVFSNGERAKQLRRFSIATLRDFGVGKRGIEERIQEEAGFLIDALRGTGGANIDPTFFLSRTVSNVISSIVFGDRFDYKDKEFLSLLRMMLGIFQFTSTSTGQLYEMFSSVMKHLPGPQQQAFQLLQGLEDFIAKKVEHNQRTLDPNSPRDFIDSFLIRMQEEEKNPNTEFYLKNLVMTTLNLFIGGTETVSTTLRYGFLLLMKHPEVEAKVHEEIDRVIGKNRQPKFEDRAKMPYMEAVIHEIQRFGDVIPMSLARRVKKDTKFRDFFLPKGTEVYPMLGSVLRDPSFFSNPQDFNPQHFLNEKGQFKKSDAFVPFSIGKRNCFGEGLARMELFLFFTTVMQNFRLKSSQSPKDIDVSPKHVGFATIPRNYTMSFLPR
Excerpt: as §1, §2, §3

[4] = molecular target: T3, CYP2B6 (Homo sapiens, UniProt P20813); test: Cytochrome P450 inhibition, CYP2B6; assay type: in vitro ADME; details: read-out: IC50 2B6
T3 construct: purchased BD Gentest, Becton-Dickinson (Supersomes); host or cells: insect cells
T3 sequence (P20813 1-491): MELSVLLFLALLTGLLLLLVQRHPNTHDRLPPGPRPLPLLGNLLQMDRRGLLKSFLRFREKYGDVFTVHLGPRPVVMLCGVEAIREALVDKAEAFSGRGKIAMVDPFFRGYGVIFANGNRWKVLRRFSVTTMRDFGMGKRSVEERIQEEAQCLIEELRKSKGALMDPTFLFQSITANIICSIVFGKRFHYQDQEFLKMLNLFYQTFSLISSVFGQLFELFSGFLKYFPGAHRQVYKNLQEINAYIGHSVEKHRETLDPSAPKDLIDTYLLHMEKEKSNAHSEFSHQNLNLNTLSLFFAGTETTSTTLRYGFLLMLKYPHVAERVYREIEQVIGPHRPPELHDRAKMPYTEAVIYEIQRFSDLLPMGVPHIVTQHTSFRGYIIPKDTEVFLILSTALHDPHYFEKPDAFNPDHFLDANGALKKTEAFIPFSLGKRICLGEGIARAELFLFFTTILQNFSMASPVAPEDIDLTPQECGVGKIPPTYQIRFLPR
Excerpt: as §1, §2, §3

[5] = molecular target: T4, CYP2C8 (Homo sapiens, UniProt P10632); test: Cytochrome P450 inhibition, CYP2C8; assay type: in vitro ADME; details: read-out: IC50 2C8
T4 construct: purchased BD Gentest, Becton-Dickinson (Supersomes); host or cells: insect cells
T4 sequence (P10632 1-490): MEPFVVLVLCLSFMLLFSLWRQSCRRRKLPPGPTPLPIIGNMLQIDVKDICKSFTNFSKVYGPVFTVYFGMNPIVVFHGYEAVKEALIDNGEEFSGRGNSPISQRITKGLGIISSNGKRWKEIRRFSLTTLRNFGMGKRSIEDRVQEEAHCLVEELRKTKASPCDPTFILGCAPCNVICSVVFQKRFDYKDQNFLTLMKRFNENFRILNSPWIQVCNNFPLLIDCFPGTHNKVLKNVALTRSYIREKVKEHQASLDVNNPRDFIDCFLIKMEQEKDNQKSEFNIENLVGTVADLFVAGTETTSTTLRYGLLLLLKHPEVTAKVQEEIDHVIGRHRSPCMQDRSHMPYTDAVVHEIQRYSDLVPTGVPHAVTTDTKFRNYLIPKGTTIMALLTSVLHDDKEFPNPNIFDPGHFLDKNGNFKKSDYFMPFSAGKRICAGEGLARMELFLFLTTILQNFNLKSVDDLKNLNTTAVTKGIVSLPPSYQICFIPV
Excerpt: as §1, §2, §3

[6] = molecular target: T5, CYP2C9 (Homo sapiens, UniProt P11712); test: Cytochrome P450 inhibition, CYP2C9; assay type: in vitro ADME; details: read-out: IC50 2C9
T5 construct: purchased BD Gentest, Becton-Dickinson (Supersomes); host or cells: insect cells
T5 sequence (P11712 whole entry): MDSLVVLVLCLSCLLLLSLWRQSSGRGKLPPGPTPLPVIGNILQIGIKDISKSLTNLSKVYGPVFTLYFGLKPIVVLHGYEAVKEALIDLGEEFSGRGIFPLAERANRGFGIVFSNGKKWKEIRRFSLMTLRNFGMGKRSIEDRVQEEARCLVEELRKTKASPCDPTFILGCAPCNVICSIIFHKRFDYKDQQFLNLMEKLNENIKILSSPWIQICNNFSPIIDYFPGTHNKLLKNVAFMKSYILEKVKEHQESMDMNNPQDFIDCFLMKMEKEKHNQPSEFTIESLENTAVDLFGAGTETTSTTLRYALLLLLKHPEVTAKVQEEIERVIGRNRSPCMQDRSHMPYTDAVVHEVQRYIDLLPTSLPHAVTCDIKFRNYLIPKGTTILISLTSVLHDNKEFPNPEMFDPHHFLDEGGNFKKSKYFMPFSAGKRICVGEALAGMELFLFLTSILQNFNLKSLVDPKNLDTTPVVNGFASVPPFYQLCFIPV
Excerpt: as §1, §2, §3

[7] = molecular target: T6, CYP2C19 (Homo sapiens, UniProt P33261); test: Cytochrome P450 inhibition, CYP2C19; assay type: in vitro ADME; details: read-out: IC50 2C19
T6 construct: purchased BD Gentest, Becton-Dickinson (Supersomes); host or cells: insect cells
T6 sequence (P33261 whole entry): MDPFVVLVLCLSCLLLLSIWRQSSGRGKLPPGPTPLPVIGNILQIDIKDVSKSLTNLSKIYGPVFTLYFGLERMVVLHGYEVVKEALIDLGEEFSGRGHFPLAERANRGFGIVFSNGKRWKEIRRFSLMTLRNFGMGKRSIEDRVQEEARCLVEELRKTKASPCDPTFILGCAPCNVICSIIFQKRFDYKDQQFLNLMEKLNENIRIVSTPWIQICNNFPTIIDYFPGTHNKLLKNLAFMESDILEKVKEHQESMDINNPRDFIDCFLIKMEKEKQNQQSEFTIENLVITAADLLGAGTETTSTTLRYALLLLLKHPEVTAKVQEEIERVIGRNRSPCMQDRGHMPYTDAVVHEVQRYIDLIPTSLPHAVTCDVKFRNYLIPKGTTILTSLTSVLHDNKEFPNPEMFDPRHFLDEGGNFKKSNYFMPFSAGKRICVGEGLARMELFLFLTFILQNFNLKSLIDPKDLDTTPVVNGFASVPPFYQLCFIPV
Excerpt: as §1, §2, §3

[8] = molecular target: T7, CYP2D6 (Homo sapiens, UniProt P10635); test: Cytochrome P450 inhibition, CYP2D6; assay type: in vitro ADME; details: read-out: IC50 2D6
T7 construct: purchased BD Gentest, Becton-Dickinson (Supersomes); host or cells: insect cells
T7 sequence (P10635 whole entry): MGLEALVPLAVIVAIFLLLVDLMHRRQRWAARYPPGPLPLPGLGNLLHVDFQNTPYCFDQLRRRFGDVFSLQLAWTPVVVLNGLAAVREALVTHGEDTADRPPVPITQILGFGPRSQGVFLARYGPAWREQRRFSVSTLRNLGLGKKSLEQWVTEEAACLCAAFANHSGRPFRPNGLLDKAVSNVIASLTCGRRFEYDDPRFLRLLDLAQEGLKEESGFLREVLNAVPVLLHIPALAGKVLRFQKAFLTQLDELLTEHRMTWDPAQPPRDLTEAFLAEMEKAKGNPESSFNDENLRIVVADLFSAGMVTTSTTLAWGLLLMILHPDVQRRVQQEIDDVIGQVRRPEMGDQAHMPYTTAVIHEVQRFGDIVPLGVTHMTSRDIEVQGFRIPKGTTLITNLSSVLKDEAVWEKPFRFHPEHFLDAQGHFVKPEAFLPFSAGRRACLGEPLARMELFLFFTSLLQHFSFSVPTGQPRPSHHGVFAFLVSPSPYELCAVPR
Excerpt: as §1, §2, §3

[9] = molecular target: T8, CYP2E1 (Homo sapiens, UniProt P05181); test: Cytochrome P450 inhibition, CYP2E1; assay type: in vitro ADME; details: read-out: IC50 2E1
T8 construct: purchased BD Gentest, Becton-Dickinson (Supersomes); host or cells: insect cells
T8 sequence (P05181 whole entry): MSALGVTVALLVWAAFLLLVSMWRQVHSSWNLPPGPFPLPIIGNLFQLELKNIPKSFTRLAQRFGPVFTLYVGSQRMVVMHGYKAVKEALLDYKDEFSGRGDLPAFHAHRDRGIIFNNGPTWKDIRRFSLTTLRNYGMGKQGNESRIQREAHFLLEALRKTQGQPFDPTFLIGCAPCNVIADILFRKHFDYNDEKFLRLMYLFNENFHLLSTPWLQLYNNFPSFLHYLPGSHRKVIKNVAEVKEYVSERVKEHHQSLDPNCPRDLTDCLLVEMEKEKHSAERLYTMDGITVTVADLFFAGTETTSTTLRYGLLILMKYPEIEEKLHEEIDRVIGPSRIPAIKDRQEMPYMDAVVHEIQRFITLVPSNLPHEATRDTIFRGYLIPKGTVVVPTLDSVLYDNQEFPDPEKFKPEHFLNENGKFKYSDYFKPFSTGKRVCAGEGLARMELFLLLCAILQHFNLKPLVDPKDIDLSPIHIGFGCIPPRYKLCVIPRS
Excerpt: as §1, §2, §3

[10] = molecular target: T9, CYP3A4 (Homo sapiens, UniProt P08684); test: Cytochrome P450 inhibition, CYP3A4 (two substrates); assay type: in vitro ADME
T9 construct: purchased BD Gentest, Becton-Dickinson (Supersomes); host or cells: insect cells
T9 sequence (P08684 whole entry): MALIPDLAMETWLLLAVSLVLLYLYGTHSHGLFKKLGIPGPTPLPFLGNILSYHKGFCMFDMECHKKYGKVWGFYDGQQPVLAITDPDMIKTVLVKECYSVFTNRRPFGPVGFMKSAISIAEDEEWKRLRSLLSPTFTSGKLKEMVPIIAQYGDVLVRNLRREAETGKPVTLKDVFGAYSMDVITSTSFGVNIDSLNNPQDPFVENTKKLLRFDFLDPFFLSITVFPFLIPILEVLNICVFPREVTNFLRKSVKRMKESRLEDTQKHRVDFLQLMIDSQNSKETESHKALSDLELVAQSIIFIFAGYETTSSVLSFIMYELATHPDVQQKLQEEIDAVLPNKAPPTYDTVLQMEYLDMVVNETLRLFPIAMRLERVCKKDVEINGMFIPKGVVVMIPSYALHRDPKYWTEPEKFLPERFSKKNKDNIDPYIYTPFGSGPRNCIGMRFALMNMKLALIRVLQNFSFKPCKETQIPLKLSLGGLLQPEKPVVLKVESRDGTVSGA
Excerpt: as §1, §2, §3

[11] = molecular target: T10, hGHS-R1a (Homo sapiens, UniProt Q92847); test: Activation-desensitization profile, Ca2+ flux in HEK293 cells stably expressing hGHS-R1a; assay type: cell-based; details: higher positive = less desensitization potential
T10 construct: expressed in transfected cells
T10 sequence (Q92847 whole entry): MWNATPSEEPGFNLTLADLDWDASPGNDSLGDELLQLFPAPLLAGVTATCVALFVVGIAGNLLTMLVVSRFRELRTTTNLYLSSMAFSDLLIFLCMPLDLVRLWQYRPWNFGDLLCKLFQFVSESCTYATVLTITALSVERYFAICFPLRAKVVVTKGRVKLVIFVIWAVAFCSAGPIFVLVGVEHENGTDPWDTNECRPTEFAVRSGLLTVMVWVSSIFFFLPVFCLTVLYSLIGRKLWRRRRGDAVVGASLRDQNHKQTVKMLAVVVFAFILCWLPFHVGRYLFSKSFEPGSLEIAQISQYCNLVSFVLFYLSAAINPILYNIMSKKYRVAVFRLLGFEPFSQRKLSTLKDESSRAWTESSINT
Protocol: M. Activation-Desensitization Profile
It is well-known that agonists of G-protein coupled receptors can induce desensitization or tachyphylaxis, thereby limiting the potential of agents acting at the receptor as therapeutics for chronic use.
• 1. […] Agonist-induced Ca^+2 fluxes were measured after loading with Ca^+2 indicator Fluo-4-AM. • 3. […] Results

Chain of human growth hormone secretagogue receptor (hGHS-R1a) (Q92847 whole entry): as above

Ki [1] | IC50 [2] | IC50 [3] | IC50 [4] | IC50 [5] | IC50 [6] | IC50 [7] | IC50 [8] | IC50 [9] | IC50 ([10]; CYP3A4, substrate BFC, read-out: IC50 3A4 (BFC)) | IC50 ([10]; CYP3A4, substrate BQ, read-out: IC50 3A4 (BQ)) | Structure (SMILES) | Δ(activity-desensitization) (pEC50 − pDC50) [11]
≤ 0.01 µM | > 100 µM | > 100 µM | > 100 µM | > 100 µM | > 100 µM | > 100 µM | > 100 µM | > 100 µM | 5.85 µM | 1.36 µM | CC(C)C[C@H]1NC(=O)[C@@H](C)N(C)C(=O)[C@H](C2CC2)NCCOc2c(ccc(F)c2F)CCCNC1=O [Compound 816] | 
 |  |  |  |  |  |  |  |  |  |  | CN1N=C2CCN(C(=O)[C@@H](COCc3ccccc3)NC(=O)C(C)(C)N)C[C@@]2(Cc2ccccc2)C1=O [Capromorelin, capromorelin, reference compound] | 0.91

— patent US10258602B2 (Ocera Therapeutics, Inc., priority 2007, dated 2019)
